Reference: patent US11191754B2, “Inhibitors of nucleotidyl transferases and uses in herpes and hepatitis viral infections therefor” (Saint Louis University, priority 2015, dated 2021)

Tested on: TK-deficient mutant of HSV-2 strain 333, ΔTK-
Assay: Replication of TK-deficient HSV-2 mutant in Vero cells
Format: cell-based, herpes simplex virus 2 (HSV-2)
Conditions: 5 μM, 24 h (FIG. 3)
Procedure: Vero cells were maintained in Dulbecco's modified Eagle's medium (DMEM) containing 3% newborn calf serum, 3% bovine growth serum, 2 mM L-glutamine and 100 IU/mL penicillin and 0.1 mg/mL streptomycin (P/S). HSV-1 #6 and HSV-2 #1 are de-identified clinical isolates from the Saint Louis University Hospital. Stocks were prepared after a single passage in cell culture and were titered by standard plaque assay (Knipe and Spang, 1982). Wild-type HSV-2 used in FIG. 3 was laboratory strain 333. The TK-deficient mutant of HSV-2 strain 333, ΔTK-, contains a 180-bp KpnI-KpnI deletion in the UL23 open reading frame that abrogates TK activity (McDermott, et al, 1984). ΔTK—was the generous gift of Jim Smiley. Virus stocks were grown and titered on Vero cells (Morrison and Knipe, 1996).
ACV is a nucleoside analog prodrug that must be phosphorylated by the viral thymidine kinase (TK) for it to become a substrate for the viral DNA polymerase (Elion, et al., 1977). HSV TK-deficient mutants are therefore insensitive to ACV. […] Vero cells were infected with a laboratory strain of HSV-2 and an engineered TK-deficient mutant of the same strain. […] ACV 5 μM inhibited wild-type HSV-2 replication 100-fold, but it had little effect on the TK-mutant (FIG. 3).

Cc1cc(CC(C)CC(C)(C)C)n(O)c(=O)c1 (stereo not shown) [#191, Piroctone olamine]
inhibition of TK-mutant HSV-2: efficiently inhibited
